Common to all, as to assay type: biochemical
Assay [1] addresses T1, Human PKK (Homo sapiens (Human), UniProt P03952). As to the kind of experiment: Inhibition of PKK (Ki), kinetic assay. The following applies: 24° C., IC50 corrected for KM. As to the method:
Measurements were performed in a kinetic interval every 2nd minute for 16 min using a Spectramax M5 (Molecular Devices) with the following settings of the wavelength excitation of 350 nm and wavelength emission of 450 nm. The number of the compound corresponds to the number of the Example in the experimental section.
The pIC50 values were then fitted using a four-parametric fitting procedure using GraphPad Prism (version 6; GraphPad Software, Inc.).
(§1) Where the IC50 is in molar and the KM value in mM.

Assay [2] concerns the target T1, Human PKK. Briefly: Inhibition of PKK, endpoint assay (human PKK). The following applies: substrate H-Pro-Phe-Arg-AMC, 1 h room temperature. As to the method:
Subsequently, PPACK II (Calbiochem) was added as a stop solution to achieve a final concentration of 1 μM and fluorescence was measured using an Envision Reader (PerkinElmer) with the wavelength excitation setting of 355 nm and the wavelength emission setting of 460 nm.

For a further assay, the target named is human TK1 (Homo sapiens (Human), UniProt P06870). Briefly: Inhibition of TK1 (Ki). The following applies: column head prints IC50, text above the table says Ki values. As to the method: The ability of compounds of formula (I) to inhibit plasma kallikrein (PKK), Factor Xlla (FXIIa), Factor Xla (FXIa), Factor Xa (FXa), Factor Ila (alpha-thrombin; FIIa), plasmin, trypsin, tissue kallikrein 1 (TK1), Factor VIIa (FVIIa), or FVIIa complexed with Tissue Factor, phospholipids and CaCl2 (FVIIa/TF/PL/CaCl2) was determined using the following biochemical assays in assay buffer (100 mM Tris, 150 mM NaCL, adjusted to a pH of 7.8 with HCl, and containing 0.1% (w/v) BSA and 0.05% (v/v) Tween20) in the presence of 1% (v/v) DMSO: EVALUATION OF THE INHIBITION OF PKK USING AN ENDPOINT ASSAY Human PKK (0.01 U/mL; Enzyme Research Laboratories) or rat PKK (0.625 nM; produced in-house) was incubated for 1 h at room temperature with 0.10 μM fluorogenic substrate H-Pro-Phe-Arg-AMC (11295 from Bachem) and various concentrations of the test compound in assay buffer. Subsequently, PPACK II (Calbiochem) was added as a stop solution to achieve a final concentration of 1 μM and fluorescence was measured using an Envision Reader (PerkinElmer) with the wavelength excitation setting of 355 nm and the wavelength emission setting of 460 nm.
human TK1, sequence (P06870 25-262): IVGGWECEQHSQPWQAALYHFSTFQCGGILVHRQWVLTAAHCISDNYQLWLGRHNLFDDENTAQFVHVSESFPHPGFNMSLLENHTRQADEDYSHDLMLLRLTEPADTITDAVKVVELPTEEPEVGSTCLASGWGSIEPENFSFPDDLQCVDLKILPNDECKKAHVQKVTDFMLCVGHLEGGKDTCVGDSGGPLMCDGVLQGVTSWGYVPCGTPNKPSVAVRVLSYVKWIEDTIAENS
Prior to the assay, human TK1 (R&D Systems) was activated by incubation with human trypsin (Calbiochem) in a 1:10,000 ratio for 15 min at 37° C. For assaying TK1 inhibitory activity, activated TK1 (31.25 nM or 1 U/mL) was incubated at 24° C. with 0.1 mM fluorogenic substrate H-Pro-Phe-Arg-AMC (11295 from Bachem) and various concentrations of the test compound in assay buffer. Measurements were performed in a kinetic interval every 2nd minute for 16 min using a Spectramax M5 (Molecular Devices) with the following settings of the wavelength excitation of 350 nm and wavelength emission of 450 nm.
The average Vmax values for the time interval from 2 to 12 min after initiation of the assay (expressed as either delta OD/min for assays using a chromogenic substrate or delta RFU/min for assays using a fluorigenic substrate, respectively) were plotted versus the Log of the concentration in molar of the evaluated inhibitor compound. The pIC50 values were then fitted using a four-parametric fitting procedure using GraphPad Prism (version 6; GraphPad Software, Inc.). Respective Ki values were obtained by correction of the IC50 values for the respective KM value of the used substrate (see Table A for the obtained KM values of the used substrates) using the following formula: […]
as §1

Assay [3] concerns the target PKK in kaolin activated human platelet poor plasma (Homo sapiens (Human), UniProt P03952). Briefly: Inhibition of PKK in kaolin activated human PPP. The following applies: global fit over 25, 75, 250, 750 μg/mL kaolin. As to the method: Platelet poor plasma (PPP) obtained from human wholeblood, anticoagulated with Na-Citrat, was incubated with various concentrations of the test compound together with either 25, 75, 250, or 750 μg/mL kaolin in assay buffer for 20 min at 37° C. such that for each kaolin dose used a concentration response was obtained for the test compound.

pIC50, pKi: −log10 of the molar value.

T1 sequence (P03952 391-638): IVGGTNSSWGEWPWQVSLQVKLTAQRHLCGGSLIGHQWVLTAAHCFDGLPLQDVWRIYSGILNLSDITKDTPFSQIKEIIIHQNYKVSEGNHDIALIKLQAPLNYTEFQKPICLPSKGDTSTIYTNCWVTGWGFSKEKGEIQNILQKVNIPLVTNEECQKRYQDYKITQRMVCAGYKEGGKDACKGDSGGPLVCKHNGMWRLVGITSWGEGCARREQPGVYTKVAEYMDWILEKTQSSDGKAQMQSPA
T1 sequence (P03952 20-390 partner): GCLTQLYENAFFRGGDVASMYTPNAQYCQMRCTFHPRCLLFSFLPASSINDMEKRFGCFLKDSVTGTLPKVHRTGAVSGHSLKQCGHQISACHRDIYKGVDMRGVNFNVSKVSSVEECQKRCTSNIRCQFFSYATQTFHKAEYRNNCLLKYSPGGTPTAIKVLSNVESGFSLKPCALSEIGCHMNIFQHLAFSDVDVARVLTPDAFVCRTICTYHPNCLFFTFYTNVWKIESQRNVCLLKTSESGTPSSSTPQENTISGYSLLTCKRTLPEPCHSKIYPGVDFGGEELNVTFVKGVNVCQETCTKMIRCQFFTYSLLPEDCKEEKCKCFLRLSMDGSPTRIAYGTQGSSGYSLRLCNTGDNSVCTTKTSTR
PKK in kaolin activated human platelet poor plasma, sequence (P03952 391-638): as the sequence (P03952 391-638) above
PKK in kaolin activated human platelet poor plasma, sequence (P03952 20-390 partner): as the sequence (P03952 20-390 partner) above

The term pKi denotes the negative decadic logarithm of the Ki, by convention in mol/L. Read a low pKi as a high Ki. Usually pIC50 stands for the negative decadic logarithm of the IC50, by convention in mol/L. Low readings indicate a high IC50, high ones a low IC50. For orientation: IC90 means the concentration needed for an effect of 90%. In turn, `Cc1nc(N2CC3CC3C2)ccc1Cc1csc(C(=O)N[C@@H]2CCc3c(C)n[nH]c32)c1` (stereo partly drawn) [Example 6, 4-[(6-{3-Azabicyclo[3.1.0]hexan-3-yl}-2-methylpyridin-3-yl)methyl]-N-[(6R)-3-methyl-1H,4H,5H,6H-cyclopenta[c]pyrazol-6-yl]thiophene-2-carboxamide] gave a negative logarithm of the Ki (pKi) on Human PKK [1] of 9.30. Moreover, the pIC50 on Human PKK [2] is 9.15; at human TK1, less than 5.00. Besides, in assay [3], the IC90 stood at 291 nM.

The molecule `Cc1nc(N2C[C@@H]3[C@H](C)[C@@H]3C2)ncc1Cn1cnc(C(=O)N[C@@H]2CCc3c2n[nH]c3C)c1` [Example 101, 1-({4-Methyl-2-[(1R,5S,6R)-6-methyl-3-azabicyclo[3.1.0]hexan-3-yl]pyrimidin-5-yl}methyl)-N-[(6R)-3-methyl-2H,4H,5H,6H-cyclopenta[c]-pyrazol-6-yl]-1H-imidazole-4-carboxamide] showed a negative logarithm of the Ki (pKi) on Human PKK [1] of 8.70. The figures for the pIC50 against Human PKK [2] and on human TK1 were 8.70 and less than 5.00, respectively. Also, in assay [3], the IC90 turned out to be 727 nM.

At Human PKK [1], `Cc1nc(N2CC3(CCC3)C2)ccc1Cn1cc(C(=O)N[C@@H]2CCc3c2n[nH]c3C)cn1` [Example 54, 1-[(6-{2-Azaspiro[3.31]heptan-2-yl}-2-methylpyridin-3-yl)methyl]-N-[(6R)-3-methyl-2H,4H,5H,6H-cyclopenta[c]pyrazol-6-yl]-1H-pyrazole-4-] showed a pKi of 9.00. The pIC50 on Human PKK [2] was 8.70; at human TK1, less than 5.00. Also, the concentration for an effect of 90% (IC90) in assay [3] was 944 nM.

On Human PKK [1], `Cc1nc(N2CC3CC3C2)ccc1Cn1cc(C(=O)NC2CCc3c(C)n[nH]c32)cn1` (centres unmarked) [Example 1, 1-[(6-{3-Azabicyclo[3.1.0]hexan-3-yl}-2-methylpyridin-3-yl)methyl]-N-{3-methyl-1H,4H,5H,6H-cyclopenta[c]pyrazol-6-yl}-1H-pyrazole-4-carboxamide] showed a pKi of 9.00. The negative-log IC50 (pIC50) is 8.70 on Human PKK [2] and less than 5.00 against human TK1. Also, in assay [3], the 90% effect concentration (IC90) is 705 nM.

For `Cc1nc(N2CCC(C)(C)C2)ccc1Cn1cc(C(=O)N[C@@H]2CCc3c2n[nH]c3C)cn1` [Example 35, 1{[6-(3,3-Dimethylpyrrolidin-1-yl)-2-methylpyridin-3-yl]methyl}-N-[(6R)-3-methyl-2H,4H,5H,6H-cyclopenta[c]pyrazol-6-yl]-1H-pyrazole-4-carboxamide], the negative-log Ki (pKi) on Human PKK [1] is 9.05. Besides, the values for the negative-log IC50 (pIC50) against Human PKK [2] and against human TK1 were 8.70 and less than 5.00, respectively. Moreover, the IC90 in assay [3] was determined as 2010 nM.

Turning to `Cc1nc(N2CCC(F)(F)C2)ccc1Cn1cc(C(=O)N[C@@H]2CCc3c2n[nH]c3C)cn1` [Example 37, 1-{[6-(3,3-Difluoropyrrolidin-1-yl)-2-methylpyridin-3-yl]methyl}-N-[(6R)-3-methyl-2H,4H,5H,6H-cyclopenta[c]pyrazol-6-yl]-1H-pyrazole-4-carboxamide], the pKi on Human PKK [1] is 8.70. In addition, the pIC50 at Human PKK [2] is 8.15; against human TK1 it was less than 5.00. The IC90 in assay [3] was 4980 nM.

Turning to `Cc1nc(N2CC(C)(C)C2)ccc1Cn1cc(C(=O)N[C@@H]2CCc3c2n[nH]c3C)cn1` [Example 67, 1-{[6-(3,3-Dimethylazetidin-1-yl)-2-methylpyridin-3-yl]methyl}-N-[(6R)-3-methyl-2H,4H,5H,6H-cyclopenta[c]pyrazol-6-yl]-1H-pyrazole-4-carboxamide], the pKi at Human PKK [1] was 9.00. This molecule also showed a negative logarithm of the IC50 (pIC50) at Human PKK [2] of 8.70. Besides, the IC90 in assay [3] stood at 545 nM.

As to `Cc1nc(N2C[C@@H]3[C@H](C)[C@@H]3C2)ccc1Cn1cc(C(=O)N[C@@H]2CCc3c2n[nH]c3C)cn1` [Example 47, N-[(6R)-3-Methyl-2H,4H,5H,6H-cyclopenta[c]pyrazol-6-yl]-1-({2-methyl-6-[(1R,5S,6S)-6-methyl-3-azabicyclo[3.1.0]hexan-3-yl]pyridin-3-yl}methyl)-1H-pyrazole-4-carboxamide], on Human PKK [1], the pKi was 9.40. In addition, the values for the negative-log IC50 (pIC50) at Human PKK [2] and against human TK1 were 9.05 and less than 5.00, respectively. Also, the IC90 in assay [3] was found to be 445 nM.

The molecule `Cc1nc(N2CC3CC3C2)ccc1Cn1cc(C(=O)N[C@@H]2CCc3c2n[nH]c3C)nc1Cl` (stereo partly drawn) [Example 102, 1-[(6-{3-Azabicyclo[3.1.0]hexan-3-yl}-2-methyl-pyridin-3-yl)methyl]-2-chloro-N-[(6R)-3-methyl-2H,4H,5H,6H-cyclopenta[c]pyrazol-6-yl]-1H-imidazole-4-carboxamide] had a negative logarithm of the Ki (pKi) on Human PKK [1] of 8.40. The pIC50 at Human PKK [2] is 9.00; against human TK1, less than 5.00. Also, in assay [3], the IC90 amounted to 5480 nM.

On to `Cc1nc(N2CC3CC3C2)ccc1Cn1cc(C(=O)N[C@@H]2CCc3c2n[nH]c3C)nc1C` (stereo partly drawn) [Example 97, 1-[(6-(3-Azabicyclo[3.1.0]hexan-3-yl}-2-methyl-pyridin-3-yl)methyl]-2-methyl-N-[(6R)-3-methyl-2H,4H,5H,6H-cyclopenta[c]pyrazol-6-yl]-1H-imidazole-4-carboxamide], for which the pKi at Human PKK [1] is 9.00. Further, the pIC50 was 8.70 at Human PKK [2] and less than 5.00 at human TK1. In addition, in assay [3], the IC90 amounted to 302 nM.

`Cc1nc(N2CCC3(CCC3)C2)ccc1Cn1cc(C(=O)N[C@@H]2CCc3c2n[nH]c3C)cn1` [Example 36, 1-[(6-{6-Azaspiro[3.4]octan-6-yl}-2-methylpyridin-3-yl)methyl]-N-[(6R)-3-methyl-2H,4H,5H,6H-cyclopenta[c]pyrazol-6-yl]-1H-pyrazole-4-carboxamide] gave a pKi on Human PKK [1] of 9.00. Moreover, the pIC50 was 8.40 on Human PKK [2] and less than 5.00 at human TK1. The IC90 in assay [3] was determined as 4670 nM.

The molecule `Cc1nc(N2CC3CC3C2)ncc1Cn1cc(C(=O)N[C@@H]2CCc3c(C)n[nH]c32)nn1` (stereo partly drawn) [Example 87, 1-[(2-{3-Azabicyclo[3.1.0]hexan-3-yl}-4-methylpyrimidin-5-yl)methyl]-N-[(6R)-3-methyl-1H,4H,5H,6H-cyclopenta[c]pyrazol-6-yl]-1H-1,2,3-triazole-4-carboxamide] showed a pKi at Human PKK [1] of 9.00. Besides, the pIC50 against Human PKK [2] was 8.70; against human TK1, less than 5.00. The IC90 in assay [3] was 1170 nM.

At Human PKK [1], `Cc1[nH]nc2c1CC[C@H]2NC(=O)c1cn(Cc2ccc(N3CC4(CC4)C3)nc2)cn1` [Example 104, 1-[(6-{5-Azaspiro[2.3]hexan-5-yl}pyridin-3-yl)-methyl]-N-[(6R)-3-methyl-2H,4H,5H,6H-cyclo-penta[c]pyrazol-6-yl]-1H-imidazole-4-carboxamide] had a pKi of 8.52. In addition, the negative logarithm of the IC50 (pIC50) at Human PKK [2] is 8.52; against human TK1, less than 5.00. Moreover, the 90% effect concentration (IC90) in assay [3] turned out to be 444 nM.

On Human PKK [2], `Cc1nc(N2CC3(CC3)C2)ccc1Cn1cc(C(=O)N[C@@H]2CCc3c(C)n[nH]c32)cn1` [Example 11] gave a negative-log IC50 (pIC50) of 9.00. For the same molecule, in assay [3], the 90% effect concentration (IC90) amounted to 598 nM.

The molecule `Cc1nc(N2CC3CC3C2)ccc1Cn1cc(C(=O)N[C@@H]2CCc3c(C)n[nH]c32)c(C)n1` (stereo partly drawn) [Example 19, 1-[(6-{3-Azabicyclo[3.1.0]hexan-3-yl}-2-methyl-pyridin-3-yl)methyl]-3-methyl-N-[(6R)-3-methyl-1H,4H,5H,6H-cyclopenta[c]pyrazol-6-yl]-1H-pyrazole-4-carboxamide] gave a pKi at Human PKK [1] of 9.52. Besides, the negative-log IC50 (pIC50) at Human PKK [2] was 9.00; on human TK1, less than 5.00.

The record behind these values is US10695334B2, “Heteroaromatic carboxamide derivatives as plasma kallikrein inhibitors” (Boehringer Ingelheim International GmbH, priority 2018, dated 2020).
